Test results reported in patent US8791108B2, “Inhibitors of human immunodeficiency virus replication” (priority 2011, dated 2014).

tested on: recombinant NL-Rluc virus; test: Inhibition of HIV replication (NL-RLuc luciferase reporter virus, MT-2 cells); assay type: cell-based; conditions: Human immunodeficiency virus 1, MT2, 120 h, read-out: Activity

`Cc1nc2cc(C(=O)N3CCN(c4ccc(Cl)cc4)CC3)nn2c(-c2cc(F)c3c(c2C)CCCO3)c1[C@H](OC(C)(C)C)C(=O)O` [Example 116, (2S)-2-(tert-butoxy)-2-(2-(4-(4-chlorophenyl)piperazine-1-carbonyl)-7-(8-fluoro-5-methylchroman-6-yl)-5-methylpyrazolo[1,5-a]pyrimidin-6-yl)acetic acid] and `Cc1nc2cc(C(=O)N3CCN(c4ccccc4)CC3)nn2c(-c2cc(F)c3c(c2C)CCCO3)c1[C@H](OC(C)(C)C)C(=O)O` [Example 93, (2S)-2-(tert-butoxy)-2-(7-(8-fluoro-5-methylchroman-6-yl)-5-methyl-2-(4-phenylpiperazine-1-carbonyl)pyrazolo[1,5-a]pyrimidin-6-yl)acetic acid] cannot be ordered by EC50: under 0.1 µM for the first, under 0.1 µM for the second.

`Cc1nc2cc(C(=O)N(C)Cc3ccccc3F)nn2c(-c2cc(F)c3c(c2C)CCCO3)c1[C@H](OC(C)(C)C)C(=O)O` [Example 22, (2S)-2-(tert-butoxy)-2-(7-(8-fluoro-5-methylchroman-6-yl)-2-((2-fluorobenzyl)(methyl)carbamoyl)-5-methylpyrazolo[1,5-a]pyrimidin-6-yl)acetic acid] and `Cc1nc2cc(C(=O)N(C)CCc3ccccc3)nn2c(-c2cc(F)c3c(c2C)CCCO3)c1[C@H](OC(C)(C)C)C(=O)O` [Example 96, (2S)-2-(tert-butoxy)-2-(7-(8-fluoro-5-methylchroman-6-yl)-5-methyl-2-(methyl(phenethyl)carbamoyl)pyrazolo[1,5-a]pyrimidin-6-yl)acetic acid] cannot be ordered by EC50: under 0.1 µM for the first, under 0.1 µM for the second.

`Cc1nc2cc(C(=O)NCCC3CCCN3C)nn2c(-c2cc(F)c3c(c2C)CCCO3)c1[C@H](OC(C)(C)C)C(=O)O` (stereo partly drawn) [Example 74, (2S)-2-(tert-butoxy)-2-(7-(8-fluoro-5-methylchroman-6-yl)-5-methyl-2-((2-(1-methylpyrrolidin-2-yl)ethyl)carbamoyl)pyrazolo[1,5-a]pyrimidin-6-yl)acetic acid] and `CNC(=O)c1cc2nc(C)c([C@H](OC(C)(C)C)C(=O)O)c(-c3cc(F)c4c(c3C)CCCO4)n2n1` [Example 137, (2S)-2-(tert-butoxy)-2-(7-(8-fluoro-5-methylchroman-6-yl)-5-methyl-2-(methylcarbamoyl)pyrazolo[1,5-a]pyrimidin-6-yl)acetic acid] cannot be ordered by EC50: over 1 µM for the first, over 1 µM for the second.

First: Cc1nc2cc(C(=O)NCc3ccc(C(F)(F)F)cc3)nn2c(-c2cc(F)c3c(c2C)CCCO3)c1[C@H](OC(C)(C)C)C(=O)O [Example 66, (2S)-2-(tert-butoxy)-2-(7-(8-fluoro-5-methylchroman-6-yl)-5-methyl-2-((4-(trifluoromethyl)benzyl)carbamoyl)pyrazolo[1,5-a]pyrimidin-6-yl)acetic acid]
Second: Cc1nc2cc(C(=O)NCc3ccc(S(N)(=O)=O)cc3)nn2c(-c2cc(F)c3c(c2C)CCCO3)c1[C@H](OC(C)(C)C)C(=O)O [Example 53, (2S)-2-(tert-butoxy)-2-(7-(8-fluoro-5-methylchroman-6-yl)-5-methyl-2-((4-sulfamoylbenzyl)carbamoyl)pyrazolo[1,5-a]pyrimidin-6-yl)acetic acid]
The EC50 of the first is lower: under 0.1 µM for the first, over 1 µM for the second.

`Cc1nccc(-c2cccc(NC(=O)c3cc4nc(C)c([C@H](OC(C)(C)C)C(=O)O)c(-c5cc(F)c6c(c5C)CCCO6)n4n3)c2)n1` [Example 85] and `Cc1cc(CNC(=O)c2cc3nc(C)c(C(OC(C)(C)C)C(=O)O)c(-c4cc(F)c5c(c4C)CCCO5)n3n2)ccc1F` (stereo in doubt) [Example 3, (2S)-2-(tert-Butoxy)-2-(2-((4-fluoro-3-methylbenzyl)carbamoyl)-7-(8-fluoro-5-methylchroman-6-yl)-5-methylpyrazolo[1,5-a]pyrimidin-6-yl)acetic acid] cannot be ordered by EC50: under 0.1 µM for the first, under 0.1 µM for the second.

First: Cc1nc2cc(C(=O)N3CCN(CCc4ccccc4)CC3)nn2c(-c2cc(F)c3c(c2C)CCCO3)c1[C@H](OC(C)(C)C)C(=O)O [Example 90, (2S)-2-(tert-butoxy)-2-(7-(8-fluoro-5-methylchroman-6-yl)-5-methyl-2-(4-phenethylpiperazine-1-carbonyl)pyrazolo[1,5-a]pyrimidin-6-yl)acetic acid]
Second: Cc1nc2cc(C(=O)NCCc3ccccc3)nn2c(-c2cc(F)c3c(c2C)CCCO3)c1[C@H](OC(C)(C)C)C(=O)O [Example 48, (2S)-2-(tert-butoxy)-2-(7-(8-fluoro-5-methylchroman-6-yl)-5-methyl-2-(phenethylcarbamoyl)pyrazolo[1,5-a]pyrimidin-6-yl)acetic acid]
The EC50 of the first is higher: 0.1 to 1 µM for the first, under 0.1 µM for the second. The second is the more potent here.

`Cc1cc(CNC(=O)c2cc3nc(C)c([C@H](OC(C)(C)C)C(=O)O)c(N4CCC(C)(C)CC4)n3n2)ccc1F` [Example 151, (S)-2-(tert-Butoxy)-2-(7-(4,4-dimethylpiperidin-1-yl)-2-((4-fluoro-3-methylbenzyl)carbamoyl)-5-methylpyrazolo[1,5-a]pyrimidin-6-yl)acetic acid] and `Cc1cc(CNC(=O)c2cc3nc(C)c([C@H](OC(C)(C)C)C(=O)O)c(C4=CCC(C)(C)CC4)n3n2)ccc1F` [Example 147, (S)-2-(tert-butoxy)-2-(7-(4,4-dimethylcyclohex-1-en-1-yl)-2-((4-fluoro-3-methylbenzyl)carbamoyl)-5-methylpyrazolo[1,5-a]pyrimidin-6-yl)acetic acid] cannot be ordered by EC50: under 0.1 µM for the first, under 0.1 µM for the second.

`Cc1nc2cc(C(=O)NC(C)c3ccccc3)nn2c(-c2cc(F)c3c(c2C)CCCO3)c1[C@H](OC(C)(C)C)C(=O)O` (stereo partly drawn) [Example 39] and `Cc1nc2cc(C(=O)NCc3ccccc3)nn2c(-c2cc(F)c3c(c2C)CCCO3)c1[C@H](OC(C)(C)C)C(=O)O` [Example 4, (2S)-2-(2-(Benzylcarbamoyl)-7-(8-fluoro-5-methylchroman-6-yl)-5-methylpyrazolo[1,5-a]pyrimidin-6-yl)-2-(tert-butoxy)acetic acid] cannot be ordered by EC50: under 0.1 µM for the first, under 0.1 µM for the second.

`Cc1nc2cc(C(=O)NCCC34C[C@H]5C[C@@H](C3)C[C@@H](C4)C5)nn2c(-c2cc(F)c3c(c2C)CCCO3)c1[C@H](OC(C)(C)C)C(=O)O` [Example 130] and `Cc1nc2cc(C(=O)NCC3CCCCC3)nn2c(-c2cc(F)c3c(c2C)CCCO3)c1[C@H](OC(C)(C)C)C(=O)O` [Example 16, (2S)-2-(tert-butoxy)-2-(2-((cyclohexylmethyl)carbamoyl)-7-(8-fluoro-5-methylchroman-6-yl)-5-methylpyrazolo[1,5-a]pyrimidin-6-yl)acetic acid] cannot be ordered by EC50: under 0.1 µM for the first, under 0.1 µM for the second.

`Cc1nc2cc(C(=O)NCc3ccc(-c4ccccc4)cc3)nn2c(-c2cc(F)c3c(c2C)CCCO3)c1[C@H](OC(C)(C)C)C(=O)O` [Example 70, (2S)-2-(2-(([1,1′-biphenyl]-4-ylmethyl)carbamoyl)-7-(8-fluoro-5-methylchroman-6-yl)-5-methylpyrazolo[1,5-a]pyrimidin-6-yl)-2-(tert-butoxy)acetic acid] and `Cc1nc2cc(C(=O)NCc3ccc(Oc4ccccc4)cc3)nn2c(-c2cc(F)c3c(c2C)CCCO3)c1[C@H](OC(C)(C)C)C(=O)O` [Example 68, (2S)-2-(tert-butoxy)-2-(7-(8-fluoro-5-methylchroman-6-yl)-5-methyl-2-((4-phenoxybenzyl)carbamoyl)pyrazolo[1,5-a]pyrimidin-6-yl)acetic acid] cannot be ordered by EC50: under 0.1 µM for the first, under 0.1 µM for the second.

`Cc1nc2cc(C(=O)NCCc3ccc(Cl)cc3)nn2c(-c2cc(F)c3c(c2C)CCCO3)c1[C@H](OC(C)(C)C)C(=O)O` [Example 112, (2S)-2-(tert-butoxy)-2-(2-((4-chlorophenethyl)carbamoyl)-7-(8-fluoro-5-methylchroman-6-yl)-5-methylpyrazolo[1,5-a]pyrimidin-6-yl)acetic acid] and `Cc1nc2cc(C(=O)NCc3ccc(Cl)cc3Cl)nn2c(-c2cc(F)c3c(c2C)CCCO3)c1[C@H](OC(C)(C)C)C(=O)O` [Example 108, (2S)-2-(tert-butoxy)-2-(2-((2,4-dichlorobenzyl)carbamoyl)-7-(8-fluoro-5-methylchroman-6-yl)-5-methylpyrazolo[1,5-a]pyrimidin-6-yl)acetic acid] cannot be ordered by EC50: under 0.1 µM for the first, under 0.1 µM for the second.

First: Cc1nc2cc(C(=O)NCc3ccccc3Cl)nn2c(-c2cc(F)c3c(c2C)CCCO3)c1[C@H](OC(C)(C)C)C(=O)O [Example 40, (2S)-2-(tert-butoxy)-2-(2-((2-chlorobenzyl)carbamoyl)-7-(8-fluoro-5-methylchroman-6-yl)-5-methylpyrazolo[1,5-a]pyrimidin-6-yl)acetic acid]
Second: Cc1nc2cc(C(=O)NCc3ccc(F)cc3-n3nncc3C)nn2c(-c2cc(F)c3c(c2C)CCCO3)c1[C@H](OC(C)(C)C)C(=O)O [Example 10, (2S)-2-(tert-butoxy)-2-(2-((4-fluoro-2-(5-methyl-1H-1,2,3-triazol-1-yl)benzyl)carbamoyl)-7-(8-fluoro-5-methylchroman-6-yl)-5-methylpyrazolo[1,5-a]pyrimidin-6-yl)acetic acid]
The EC50 of the first is lower: under 0.1 µM for the first, 0.1 to 1 µM for the second.

Compound `Cc1nc2cc(C(=O)N3CCC(c4ccc(F)cc4)CC3)nn2c(-c2cc(F)c3c(c2C)CCCO3)c1[C@H](OC(C)(C)C)C(=O)O` (atropisomer, axis not shown) [Example 138, (S)-2-(tert-Butoxy)-2-((S)-7-(8-fluoro-5-methylchroman-6-yl)-2-(4-(4-fluorophenyl)piperidine-1-carbonyl)-5-methylpyrazolo[1,5-a]pyrimidin-6-yl)acetic acid] has an EC50 of under 0.1 µM.

same assay, conditions: Human immunodeficiency virus 1, MT2, 120 h, read-out: EC50 μM

First: Cc1nccc(-c2cccc(NC(=O)c3cc4nc(C)c([C@H](OC(C)(C)C)C(=O)O)c(-c5cc(F)c6c(c5C)CCCO6)n4n3)c2)n1 [Example 85]
Second: Cc1cc(CNC(=O)c2cc3nc(C)c(C(OC(C)(C)C)C(=O)O)c(-c4cc(F)c5c(c4C)CCCO5)n3n2)ccc1F (stereo in doubt) [Example 3, (2S)-2-(tert-Butoxy)-2-(2-((4-fluoro-3-methylbenzyl)carbamoyl)-7-(8-fluoro-5-methylchroman-6-yl)-5-methylpyrazolo[1,5-a]pyrimidin-6-yl)acetic acid]
The EC50 of the first is 2-fold lower: 0.016 µM for the first, 0.032 µM for the second. The first is the more potent here.

First: Cc1nc2cc(C(=O)NCc3ccc(S(N)(=O)=O)cc3)nn2c(-c2cc(F)c3c(c2C)CCCO3)c1[C@H](OC(C)(C)C)C(=O)O [Example 53, (2S)-2-(tert-butoxy)-2-(7-(8-fluoro-5-methylchroman-6-yl)-5-methyl-2-((4-sulfamoylbenzyl)carbamoyl)pyrazolo[1,5-a]pyrimidin-6-yl)acetic acid]
Second: Cc1nc2cc(C(=O)NCc3ccc(Cl)cc3Cl)nn2c(-c2cc(F)c3c(c2C)CCCO3)c1[C@H](OC(C)(C)C)C(=O)O [Example 108, (2S)-2-(tert-butoxy)-2-(2-((2,4-dichlorobenzyl)carbamoyl)-7-(8-fluoro-5-methylchroman-6-yl)-5-methylpyrazolo[1,5-a]pyrimidin-6-yl)acetic acid]
The EC50 of the first is 250-fold higher: 3.19 µM for the first, 0.013 µM for the second. The second is the more potent here.

In the case of `Cc1nc2cc(C(=O)N(C)CCc3ccccc3)nn2c(-c2cc(F)c3c(c2C)CCCO3)c1[C@H](OC(C)(C)C)C(=O)O` [Example 96, (2S)-2-(tert-butoxy)-2-(7-(8-fluoro-5-methylchroman-6-yl)-5-methyl-2-(methyl(phenethyl)carbamoyl)pyrazolo[1,5-a]pyrimidin-6-yl)acetic acid], the EC50 is reported as 0.077 µM.
